According to PMC2375318, “Inhibition of the alpha-ν integrins with a cyclic RGD peptide impairs angiogenesis, growth and metastasis of solid tumours in vivo” (British Journal of Cancer, 2002):
Non-standard residues stand in square brackets, D forms with d. Residues, ends and D or L forms follow the SMILES beside them. NMeV = CN[C@H](C(=O)O)C(C)C; βAla = NCCC(=O)O

How the values were obtained:
subcutaneous A-Mel-3 = test: Growth and lymph node metastasis of subcutaneous A-Mel-3 tumours; type: in vivo, Syrian Golden hamster; settings: for Subcutaneous tumour volume / growth pattern: calliper measurement every other day from day 5, 30 mg kg^−1 i.p. every 12 h
Procedure: Male Syrian Golden Hamsters (weight, age and housing as described above) were anaesthetised with pentobarbital and the dorsal skin was shaven and chemically depilated (Pilcamed, Schwarzkopf, Germany). Cells (4 to 6×10^6) of the A-Mel-3 were suspended in a 10 μl volume and injected s.c. over the lumbosacral region of the dorsal skin. This is considered to cause the least distress upon the animal because the dorsal skin is extremely expansible. Starting on day 5 after tumour cell implantation, the longer (l) and shorter (w) perpendicular axes and the height (h) of each tumour nodule were measured with callipers every other day. Metastases of the animals were determined by palpation of axillar and inguinal lymph nodes. The day when metastases were first palpable the animal was defined as metastasised. To minimise the pain and distress of the animals no biopsies were taken from the lymph nodes during the observation time. This was due to the known fact that the axillar or inguinal lymph nodes were the most frequent sites of metastasis formation ([Fortner et al, 1961]; [Weiss et al, 1990]). After the end of the experiments when animals were euthanised, biopsies were taken to confirm histologically the invasion of the lymph nodes. Tumour volume was calculated according to the formula Vt=0.837×l×w×h ([Weiss et al, 1990]).
(§1) The cyclic integrin αv antagonist EMD121974 (cyclic Arg-Gly-Asp-D-Phe(N-methyl)Val) ([Dechantsreiter et al, 1999]) and the control peptide EMD135981 (cyclic Arg-β-Ala-Asp-D-Phe(N-methyl)Val) were synthesised and characterised at Merck KgAa (Darmstadt, Germany). In pilot studies pharmacokinetics of the peptides were compared after intravenous and intraperitoneal injection in hamsters. […] Therefore, we chose the following set-up for administration: Peptides were dissolved in PBS (10 mg ml^−1). One day after implantation of tumour cells, animals were randomly assigned to two groups (n=6) and RGD-peptide EMD121974 or control-peptide EMD135981 were given i.p. every 12 h (30 mg kg^−1 b.w.) until the end of the experiments.
Results are presented as mean±s.e.m. Data were evaluated using Wilcoxon–Mann–Whitney U and Kruskal–Wallis test, respectively (SigmaStat; Jandel Scientific, San Rafael, CA, USA). Metastasis analysis was performed according to the Kaplan–Meier method ([Kaplan and Meier, 1958]) and the differences were compared for statistical significance using the Cox-F test ([Lee, 1975], [1980]) with the statistical software program Statistica (StatSoft, Inc, 1997, Tulsa, OK, USA). P values smaller than 5% were considered to be significant.

[1] = test system: amelanotic hamster melanoma A-Mel-3; test: Tumour growth (tumour area) in the dorsal skinfold chamber by video macroscopy; type: in vivo, Syrian Golden hamster; settings: 30 mg kg^−1 i.p. every 12 h; for Tumour area: n=6, mean±s.e.m.
Procedure: (§2) For quantification of tumour angiogenesis, a dorsal skinfold chamber preparation consisting of two symmetrical titanium frames was surgically implanted into the dorsal skin as described earlier in detail ([Asaishi et al, 1981]; [Endrich et al, 1982]). This is considered to cause the least distress upon the animal because the dorsal skin is extremely expansible. Following implantation of the transparent chamber and a recovery period of 48 h from anaesthesia and microsurgery, preparations fulfilling the criteria of an intact microcirculation were implanted with 2×10^5 cells of the amelanotic melanoma of the hamster A-Mel-3 ([Fortner et al, 1961]). Fine polyethylene catheters (PE10, inner diameter 0.28 mm) were permanently inserted into the right jugular vein 48 h before first measurement to allow injection of fluorescent agents for intravital fluorescence microscopy.
(§3) Quantification of tumour angiogenesis using intravital fluorescence microscopy have been described in detail elsewhere ([Asaishi et al, 1981]; [Dellian et al, 1995], [1996]). In brief, the awake animal was trained to crawl into a transparent plastic tube and was placed on a custom-made stage under a modified Leitz microscope (Orthoplan; Leitz, Munich, Germany). FITC-labelled dextran (Sigma, Deisenhofen, Germany; MW 500000; 0.05–0.1 ml of a 5% solution in 0.9% NaCl) as a plasma marker and rhodamine 6G (Molecular Probes, Eugene, OR, USA; 0.04 ml of a 0.05% solution in 0.9% NaCl) to label white blood cells in vivo, were injected i.v. to visualise microcirculation and leucocyte–endothelium interaction, respectively. […] Selective observation of FITC-labelled plasma was possible using epi-illumination with a 100 W mercury lamp attached to a Ploemopack illuminator with a Leitz I2/3 filter block (excitation 450–490 nm, emission ⩽515 nm) and rhodamine 6G-stained leucocytes were visualised using a Leitz N2 filter block (excitation 530–560 nm, emission ⩽580 nm). Intravital microscopy was performed 3, 5, 9 and 13 days after implantation of the tumour cells. At least 3–5 sites of interest per animal were randomly selected in centre and periphery of the tumour. Images were acquired by a SIT video camera (C2400-08; Hamamatsu Herrsching, Germany) and recorded on S-VHS video tape (Sony) for subsequent analysis. Parallel to microvascular observations the area covered by tumour in the chamber preparation was registered on videotape using a Leitz macroscope with video camera (XC-77; Sony) to evaluate tumour growth. The tumour area (mm^2) was quantified from videotape by digital image analysis.
as §1

[2] = test system: amelanotic hamster melanoma A-Mel-3; test: Intravital fluorescence microscopy of tumour angiogenesis and microcirculation in the dorsal skinfold chamber; type: in vivo, Syrian Golden hamster; settings: for Appearance of tumour vasculature: 3 days after tumour cell implantation, FITC-Dextran plasma marker; for Functional vessel density (FVD): 30 mg kg^−1 b.w. i.p. every 12 h from day 1, n=6, mean±s.e.m.; for Leucocyte–endothelium interaction in tumour microvessels: rhodamine 6G-stained leucocytes
Procedure: as §2, §3
Analysis of microcirculatory parameters was performed off-line from video tape by an image analysis system (Cap Image; Zeintl, Heidelberg, Germany). This system described in detail by [Zeintl et al (1989)] and [Klyscz et al (1997)] allows measurement of functional vessel density (FVD) as a parameter of angiogenic activity ([Dellian et al, 1996]). FVD is defined as the total length of perfused microvessels per unit area of observation and is given in cm^−1. Red blood cell velocity (vRBC) was quantified with the line shift diagram method according to [Klyscz et al (1997)] in mm s^−1. Rolling leucocytes were defined as population of cells temporarily interacting with the vessel wall and thus having a velocity at least 50% below vRBC in the same vessel. Adherent leucocytes were given as the number of leucocytes remaining stationary for at least 30 s per square millimetre of vessel wall surface ([Atherton and Born, 1972]; [Dellian et al, 1996]).
(§4) The cyclic integrin αv antagonist EMD121974 (cyclic Arg-Gly-Asp-D-Phe(N-methyl)Val) ([Dechantsreiter et al, 1999]) and the control peptide EMD135981 (cyclic Arg-β-Ala-Asp-D-Phe(N-methyl)Val) were synthesised and characterised at Merck KgAa (Darmstadt, Germany). In pilot studies pharmacokinetics of the peptides were compared after intravenous and intraperitoneal injection in hamsters. […]

[3] = Tolerability during treatment (side effects, body weight, behaviour); type: in vivo, Syrian Golden hamster; settings: 30 mg kg^−1 i.p. twice a day
Procedure: Experiments were performed with male Syrian Golden Hamsters (6–8 weeks old, 50–60 g body weight (bw)) in accordance with institutional guidelines after approval of the animal committee of the Bavarian state. The animals were housed one per cage and had free access to tap water and standard laboratory food throughout the experiments. Animals were inspected at least two times a day by specialised animal colony staff to assure a normal clinical condition (including appearance, posture, behaviour and physiological responses). Particular attention was given to body weight and any signs of discomfort, ulceration or inflammation. All surgical procedures were performed under pentobarbital anaesthesia (50 mg kg^−1 b.w., i.p.; Nembutal, Sanofia-Leva, Hannover, Germany). The experiments met all the standards required by the UKCCCR guidelines for the welfare of animals in experimental neoplasia (United Kingdom Co-ordinating Committee on Cancer Research ([UKCCCR), 1998]).
as §4

[4] = Pilot pharmacokinetics after intravenous and intraperitoneal injection; type: in vivo, hamster; settings: hamsters, pilot study
Procedure: as §1

[5] = day 13 after tumour implantation

CC(C)[C@H]1C(=O)N[C@@H](CCCNC(=N)N)C(=O)NCCC(=O)N[C@@H](CC(=O)O)C(=O)N[C@H](Cc2ccccc2)C(=O)N1C [EMD135981, cyclic Arg-β-Ala-Asp-D-Phe(N-methyl)Val, reference compound] (cyclo(D[dF][NMeV]R[βAla]))
Subcutaneous tumour volume / growth pattern (subcutaneous A-Mel-3): nearly exponential growth | Day lymph node metastasis first palpable (subcutaneous A-Mel-3; in two animals of the group, palpation): 9 days | Palpable lymph node metastasis on day 11 (subcutaneous A-Mel-3; two days after day 9, palpation of axillar and inguinal lymph nodes): palpable metastasis was found in all control animals | Tumour area ([1]; day 9): 28.1±3.2 mm^2 | Tumour area ([1]; day 13): 80.94±6.1 mm^2 | Appearance of tumour vasculature [2]: dense, chaotic structured network | Functional vessel density (FVD) [2, 5]: 108.2 ± 10.6 cm⁻¹ | Day on which FVD reached its maximum value ([2]; measurements on days 3, 5, 9 and 13, 30 mg kg^−1 i.p. every 12 h): 5 days | Leucocyte–endothelium interaction in tumour microvessels ([2]; 30 mg kg^−1 i.p. every 12 h): almost absent

CC(C)[C@H]1C(=O)N[C@@H](CCCNC(=N)N)C(=O)NCC(=O)N[C@@H](CC(=O)O)C(=O)N[C@H](Cc2ccccc2)C(=O)N1C [EMD121974, cyclic Arg-Gly-Asp-D-Phe(N-methyl)Val]
Subcutaneous tumour volume / growth pattern (subcutaneous A-Mel-3): significantly smaller in comparison to controls on days 7 until 15 | Effect on tumour growth of 30 mg kg^−1 every 12 h compared to 30 mg every 2 days (subcutaneous A-Mel-3; pilot study): slightly higher effect on tumour growth | Tumour area ([1]; day 9): 20.5±1.4 mm^2 | Tumour area ([1]; day 13): 49.1±4.8 mm^2 | Tumour area versus controls ([1]; days 3 and 5): slightly smaller than controls | Side effects in treated animals [3]: no side effects were observed | Body weight ([3]; control and treated animals): increased similar in control and treated animals | Appearance of tumour vasculature [2]: only individual sprouts as signs of early angiogenesis were visible | Functional vessel density (FVD) ([2]; day 3 after tumour cell implantation): 32.7 ± 12.1 cm⁻¹ | Functional vessel density (FVD) [2, 5]: 156.9 ± 15.6 cm⁻¹ | Red blood cell velocity (vRBC) versus control peptide ([2]; days 9 and 13, 30 mg kg^−1 i.p. every 12 h): slightly lower | Vessel diameters, RGD peptide versus control peptide ([2]; intravital microscopy, 30 mg kg^−1 i.p. every 12 h): no differences | Leucocyte–endothelium interaction in tumour microvessels ([2]; 30 mg kg^−1 i.p. every 12 h): almost absent | half-life ([4]; Syrian Golden, hamster, plasma, ip, after intraperitoneal injection, read-out: Plasma half-life time): 47 min | Area under the curve, intraperitoneal versus intravenous administration [4]: similar
